Laboratory results published in patent publication US20230339916A1, “PLANT GROWTH REGULATOR COMPOUNDS” (SYNGENTA CROP PROTECTION AG, priority 2020, published 2023).

These compounds were tested on Corn leaf discs (variety Multitop) (assay: Dark induced senescence of corn leaf). Conditions: Zea mays, foliar, 192 h; corn leaf discs in the dark, 23° C., 75% humidity, 8 days; 100 μM-0.0001 μM, 0.5% DMSO; image analysis; read-out: IC50 (concentration at which 50% senescence was achieved).
Assay type: in vivo
Procedure: Corn plants of variety Multitop were grown in a greenhouse with relative 75% humidity and at 23-25° C. for 6 weeks. 1.4 cm diameter leaf discs were placed into 24-well plates containing test compounds in a concentration gradient (100 μM-0.0001 μM) at a final concentration of 0.5% DMSO. Each concentration was tested in 12 replicates. Plates were sealed with seal foil. The foil was pierced to provide gas exchange in each well. The plates were placed into the completely dark climatic chamber. Plates were incubated in the chamber with 75% humidity and at 23° C. for 8 days. On days 0, 5, 6, 7 and 8 photographs were taken of each plate, and image analysis conducted with a macro developed using the ImageJ software. The image analysis was used to determine the concentration at which 50% senescence was achieved (IC50), see Table 3. The lower the value, the higher senescence induction potency.

IC50, < 3000 nM:
CCOC(=O)/C(=C/OC1OC(=O)C(C)=C1C)n1cnc2ccccc21 (stereo not shown) [Compound I-57-Z, ethyl (Z)-2-(benzimidazol-1-yl)-3-[(3,4-dimethyl-5-oxo-2H-furan-2-yl)oxy]prop-2-enoate]
CCOC(=O)/C(=C/OC1OC(=O)C(C)=C1C)n1ccc2ccccc21 (stereo not shown) [Compound I-7-Z, ethyl (Z)-3-[(3,4-dimethyl-5-oxo-2H-furan-2-yl)oxy]-2-indol-1-yl-prop-2-enoate]
CNC(=O)/C(=C/OC1OC(=O)C(C)=C1C)n1nnc2ccccc21 (stereo not shown) [Compound I-37-Z, (Z)-2-(benzotriazol-1-yl)-3-[(3,4-dimethyl-5-oxo-2H-furan-2-yl)oxy]-N-methyl-prop-2-enamide]
CCOC(=O)/C(=C/OC1OC(=O)C(C)=C1C)n1c(C)c(C)c2ccccc21 (stereo not shown) [Compound I-30-Z, ethyl (Z)-2-(2,3-dimethylindol-1-yl)-3-[(3,4-dimethyl-5-oxo-2H-furan-2-yl)oxy]prop-2-enoate]
CNC(=O)/C(=C/OC1C=C(C)C(=O)O1)n1cc(C#N)c2ccccc21 (stereo not shown) [Compound I-82-Z, (Z)-2-(3-cyanoindol-1-yl)-N-methyl-3-[(4-methyl-5-oxo-2H-furan-2-yl)oxy]prop-2-enamide]
CCOC(=O)/C(=C/OC1C=C(C)C(=O)O1)n1c(C)c(C)c2ccccc21 (stereo not shown) [Compound I-29-Z, ethyl (Z)-2-(2,3-dimethylindol-1-yl)-3-[(4-methyl-5-oxo-2H-furan-2-yl)oxy]prop-2-enoate]
CCOC(=O)/C(=C/OC1OC(=O)C(C)=C1C)n1nc(C)c(C)c1C (stereo not shown) [Compound I-81-Z, ethyl (Z)-3-[(3,4-dimethyl-5-oxo-2H-furan-2-yl)oxy]-2-(3,4,5-trimethylpyrazol-1-yl)prop-2-enoate]
CCOC(=O)/C(=C/OC1C=C(C)C(=O)O1)n1ccc2cc(-c3ccccc3)ccc21 (stereo not shown) [Compound I-5-Z, ethyl (Z)-3-[(4-methyl-5-oxo-2H-furan-2-yl)oxy]-2-(5-phenylindol-1-yl)prop-2-enoate]
CCOC(=O)/C(=C/OC1C=C(C)C(=O)O1)n1c(=O)oc2ccccc21 (stereo not shown) [Compound I-68-Z, ethyl (Z)-3-[(4-methyl-5-oxo-2H-furan-2-yl)oxy]-2-(2-oxo-1,3-benzoxazol-3-yl)prop-2-enoate]
CCOC(=O)/C(=C/OC1C=C(C)C(=O)O1)N1CCc2cc(Br)ccc21 (stereo not shown) [Compound I-72-Z, ethyl (Z)-2-(5-bromoindolin-1-yl)-3-[(4-methyl-5-oxo-2H-furan-2-yl)oxy]prop-2-enoate]
CCOC(=O)/C(=C/OC1C=C(C)C(=O)O1)n1cc(C#N)c2ccccc21 (stereo not shown) [Compound I-25-Z, ethyl (Z)-2-(3-cyanoindol-1-yl)-3-[(4-methyl-5-oxo-2H-furan-2-yl)oxy]prop-2-enoate]
CCOC(=O)/C(=C/OC1OC(=O)C(C)=C1C)n1ccc2cc(-c3ccccc3)ccc21 (stereo not shown) [Compound I-11-Z, ethyl (Z)-3-[(3,4-dimethyl-5-oxo-2H-furan-2-yl)oxy]-2-(5-phenylindol-1-yl)prop-2-enoate]
CCOC(=O)/C(=C/OC1OC(=O)C(C)=C1C)N1CCc2cc(Br)ccc21 (stereo not shown) [Compound I-73-Z, ethyl (Z)-2-(5-bromoindolin-1-yl)-3-[(3,4-dimethyl-5-oxo-2H-furan-2-yl)oxy]prop-2-enoate]
CCOC(=O)/C(=C/OC1C=C(C)C(=O)O1)n1ncc2ccccc21 (stereo not shown) [Compound I-42-Z, ethyl (Z)-2-indazol-1-yl-3-[(4-methyl-5-oxo-2H-furan-2-yl)oxy]prop-2-enoate]
CCOC(=O)/C(=C/OC1OC(=O)C(C)=C1C)n1ncc2ccccc21 (stereo not shown) [Compound I-46-Z, ethyl (Z)-3-[(3,4-dimethyl-5-oxo-2H-furan-2-yl)oxy]-2-indazol-1-yl-prop-2-enoate]
CCOC(=O)/C(=C/OC1C=C(C)C(=O)O1)n1nc(F)c2ccccc21 (stereo not shown) [Compound I-50-Z, ethyl (Z)-2-(3-fluoroindazol-1-yl)-3-[(4-methyl-5-oxo-2H-furan-2-yl)oxy]prop-2-enoate]
CNC(=O)/C(=C\OC1C=C(C)C(=O)O1)n1nnc2ccccc21 (stereo not shown) [Compound I-33-E, (E)-2-(benzotriazol-1-yl)-N-methyl-3-[(4-methyl-5-oxo-2H-furan-2-yl)oxy]prop-2-enamide]
CCOC(=O)/C(=C/OC1C=C(C)C(=O)O1)n1cnc2c(N(C)C)nc(F)nc21 (stereo not shown) [Compound I-60-Z, ethyl (Z)-2-[6-(dimethylamino)-2-fluoro-purin-9-yl]-3-[(4-methyl-5-oxo-2H-furan-2-yl)oxy]prop-2-enoate]
CCOC(=O)/C(=C/OC1OC(=O)C(C)=C1C)N1C(=O)C2(CC2)c2ccccc21 (stereo not shown) [Compound I-67-Z, ethyl (Z)-3-[(3,4-dimethyl-5-oxo-2H-furan-2-yl)oxy]-2-(2′-oxospiro[cyclopropane-1,3′-indoline]-1′-yl)prop-2-enoate]
CCOC(=O)/C(=C/OC1C=C(C)C(=O)O1)n1nc(C)c(C)c1C (stereo not shown) [Compound I-80-Z, ethyl (Z)-3-[(4-methyl-5-oxo-2H-furan-2-yl)oxy]-2-(3,4,5-trimethylpyrazol-1-yl)prop-2-enoate]
CCOC(=O)/C(=C/OC1C=C(C)C(=O)O1)N1C(=O)C2(CC2)c2ccccc21 (stereo not shown) [Compound I-66-Z, ethyl (Z)-3-[(4-methyl-5-oxo-2H-furan-2-yl)oxy]-2-(2′-oxospiro[cyclopropane-1,3′-indoline]-1′-yl)prop-2-enoate]
CC1=CC(O/C=C(/C(=O)N(C)C)n2cc(C#N)c3ccccc32)OC1=O (stereo not shown) [Compound I-86-Z, (Z)-2-(3-cyanoindol-1-yl)-N,N-dimethyl-3-[(4-methyl-5-oxo-2H-furan-2-yl)oxy]prop-2-enamide]
CCOC(=O)/C(=C/OC1C=C(C)C(=O)O1)n1c(=O)sc2ccccc21 (stereo not shown) [Compound I-64-Z, ethyl (Z)-3-[(4-methyl-5-oxo-2H-furan-2-yl)oxy]-2-(2-oxo-1,3-benzothiazol-3-yl)prop-2-enoate]
CC1=C(C)C(O/C=C(\C#N)n2ncc3ccccc32)OC1=O (stereo not shown) [Compound I-47-E, (E)-3-[(3,4-dimethyl-5-oxo-2H-furan-2-yl)oxy]-2-indazol-1-yl-prop-2-enenitrile]
CNC(=O)/C(=C/OC1OC(=O)C(C)=C1C)n1cc(C#N)c2ccccc21 (stereo not shown) [Compound I-83-Z, (Z)-2-(3-cyanoindol-1-yl)-3-[(3,4-dimethyl-5-oxo-2H-furan-2-yl)oxy]-N-methyl-prop-2-enamide]
CCOC(=O)/C(=C/OC1OC(=O)C(C)=C1C)n1c(=O)oc2ccccc21 (stereo not shown) [Compound I-69-Z, ethyl (Z)-3-[(3,4-dimethyl-5-oxo-2H-furan-2-yl)oxy]-2-(2-oxo-1,3-benzoxazol-3-yl)prop-2-enoate]
CCOC(=O)/C(=C/OC1OC(=O)C(C)=C1C)n1cc(C)c2ccccc21 (stereo not shown) [Compound I-28-Z, ethyl (Z)-3-[(3,4-dimethyl-5-oxo-2H-furan-2-yl)oxy]-2-(3-methylindol-1-yl)prop-2-enoate]
CCOC(=O)/C(=C/OC1C=C(C)C(=O)O1)n1ccc2ccccc21 (stereo not shown) [Compound I-1-Z, ethyl (Z)-2-indol-1-yl-3-[(4-methyl-5-oxo-2H-furan-2-yl)oxy]prop-2-enoate]
CC1=C(C)C(O/C=C(/C#N)n2ncc3ccccc32)OC1=O (stereo not shown) [Compound I-47-Z, (Z)-3-[(3,4-dimethyl-5-oxo-2H-furan-2-yl)oxy]-2-indazol-1-yl-prop-2-enenitrile]
CCOC(=O)/C(=C/OC1OC(=O)C(C)=C1C)n1c(C)nc2ccccc21 (stereo not shown) [Compound I-59-Z, ethyl (Z)-3-[(3,4-dimethyl-5-oxo-2H-furan-2-yl)oxy]-2-(2-methylbenzimidazol-1-yl)prop-2-enoate]
CCOC(=O)/C(=C/OC1OC(=O)C(C)=C1OC)n1cc(C#N)c2ccccc21 (stereo not shown) [Compound I-88-Z, ethyl (Z)-2-(3-cyanoindol-1-yl)-3-[(3-methoxy-4-methyl-5-oxo-2H-furan-2-yl)oxy]prop-2-enoate]
CCOC(=O)/C(=C/OC1OC(=O)C(C)=C1C)n1cc(C#N)c2ccccc21 (stereo not shown) [Compound I-26-Z, ethyl (Z)-2-(3-cyanoindol-1-yl)-3-[(3,4-dimethyl-5-oxo-2H-furan-2-yl)oxy]prop-2-enoate]
CCOC(=O)/C(=C/OC1C=C(C)C(=O)O1)n1ccc2cc(C(F)(F)F)ccc21 (stereo not shown) [Compound I-2-Z, ethyl (Z)-3-[(4-methyl-5-oxo-2H-furan-2-yl)oxy]-2-[5-(trifluoromethyl)indol-1-yl]prop-2-enoate]
CCOC(=O)/C(=C/OC1C=C(C)C(=O)O1)n1cc(C)c2ccccc21 (stereo not shown) [Compound I-27-Z, ethyl (Z)-2-(3-methylindol-1-yl)-3-[(4-methyl-5-oxo-2H-furan-2-yl)oxy]prop-2-enoate]
CCOC(=O)/C(=C/OC1C=C(C)C(=O)O1)n1ccc2cncnc21 (stereo not shown) [Compound I-62-Z, ethyl (Z)-3-[(4-methyl-5-oxo-2H-furan-2-yl)oxy]-2-pyrrolo[2,3-d]pyrimidin-7-yl-prop-2-enoate]
CCOC(=O)/C(=C/OC1C=C(C)C(=O)O1)N1C(=O)CSc2ccccc21 (stereo not shown) [Compound I-78-Z, ethyl (Z)-3-[(4-methyl-5-oxo-2H-furan-2-yl)oxy]-2-(3-oxo-1,4-benzothiazin-4-yl)prop-2-enoate]
CCOC(=O)/C(=C/OC1OC(=O)C(C)=C1C)n1nnc2ccccc21 (stereo not shown) [Compound I-35-Z, ethyl (Z)-2-(benzotriazol-1-yl)-3-[(3,4-dimethyl-5-oxo-2H-furan-2-yl)oxy]prop-2-enoate]
